Source: patent US8420817B2, “Tricyclic N-heteroaryl-carboxamide derivatives, preparation and therapeutic use thereof” (Sanofi, priority 2007, dated 2013)

SMILES: O=C(Nc1cnc2c(c1)nc1n2CCCC1)c1cc2cc(C(F)(F)F)ccc2n1Cc1cccc(F)c1 [Compound 27, N-(6,7,8,9-Tetrahydroimidazo[1,2-a:5,4-b′]dipyridin-3-yl)-5-trifluoromethyl-1-(3-fluorobenzyl)-1H-indole-2-carboxamide]
- melting point: 262 to 263 °C

SMILES: Cc1ccc(C)c2c1cc(C(=O)Nc1cnc3c(c1)nc1n3CCC1)n2Cc1cccc(F)c1
- melting point: 286 to 288 °C

SMILES: O=C(Nc1cnc2c(c1)nc1n2CCC1)c1cc2ccc(F)cc2n1Cc1cccc(F)c1
- melting point: 235 to 236 °C

SMILES: CC(C)(C)c1ccc2c(c1)cc(C(=O)Nc1cnc3c(c1)nc1n3CCC1)n2Cc1cccc(F)c1 [Compound 18, N-(7,8-Dihydro-6H-pyrrolo[2′,1′:2,3]imidazo[4,5-b]pyridin-3-yl)-5-tertbutyl-1-(3-fluorobenzyl)-1H-indole-2-carboxamide]
- melting point: 234 to 236 °C

SMILES: Cc1cccc2c1cc(C(=O)Nc1cnc3c(c1)nc1n3CCC1)n2Cc1cccc(F)c1
- melting point: 303 to 304 °C

SMILES: O=C(Nc1cnc2c(c1)nc1n2CCC1)c1cc2c(Cl)cccc2n1Cc1cccc(F)c1
- melting point: 302 to 303 °C

SMILES: CS(=O)(=O)c1ccc2c(c1)cc(C(=O)Nc1cnc3c(c1)nc1n3CCC1)n2Cc1cccc(F)c1 [Compound 21, N-(7,8-Dihydro-6H-pyrrolo[2′,1′:2,3]imidazo[4,5-b]pyridin-3-yl)-5-methylsulfonyl-1-(3-fluorobenzyl)-1H-indole-2-carboxamide]
- melting point: 275 to 277 °C

SMILES: O=C(Nc1cnc2c(c1)nc1n2CCC1O)c1cc2cc(C(F)(F)F)ccc2n1Cc1cccc(F)c1 (stereo not drawn) [Compound 26, N-(6-Hydroxy-7,8-dihydro-6H-pyrrolo[2′,1′:2,3]imidazo[4,5-b]pyridin-3-yl)-5-trifluoromethyl-1-(3-fluorobenzyl)-1H-indole-2-carboxamide]
- melting point: 267 to 268 °C

SMILES: O=C(Nc1cnc2c(c1)nc1n2CCC1O)c1cc2cc(F)ccc2n1Cc1cccc(F)c1 (racemic)
- melting point: 288 to 290 °C

SMILES: Cc1ccc2cc(C(=O)Nc3cnc4c(c3)nc3n4CCC3)n(Cc3cccc(F)c3)c2c1
- melting point: 182 to 183 °C

SMILES: CC1(C)CCn2c1nc1cc(NC(=O)c3cc4cc(C(F)(F)F)ccc4n3Cc3cccc(F)c3)cnc12 [Compound 31, N-(6,6-Dimethyl-7,8-dihydro-6H-pyrrolo[2′,1′:2,3]imidazo[4,5-b]pyridin-3-yl)-5-trifluoromethyl-1-(3-fluorobenzyl)-1H-indole-2-carboxamide]
- melting point: 212 to 213 °C

SMILES: O=C(Nc1cnc2c(c1)nc1n2CCC1)c1cc2ccc(Cl)cc2n1Cc1cccc(F)c1
- melting point: 252 to 253 °C

SMILES: CC(C)(C)c1ccc2cc(C(=O)Nc3cnc4c(c3)nc3n4CCC3)n(Cc3cccc(F)c3)c2c1 [Compound 19, N-(7,8-Dihydro-6H-pyrrolo[2′,1′:2,3]imidazo[4,5-b]pyridin-3-yl)-6-tertbutyl-1-(3-fluorobenzyl)-1H-indole-2-carboxamide]
- melting point: 244 to 245 °C

SMILES: O=C(Nc1cnc2c(c1)nc1n2CCC1)c1cc2ccccc2n1Cc1cccc(F)c1
- melting point: 243 to 244 °C

SMILES: O=C(Nc1cnc2c(c1)nc1n2CCC1)c1cc2ccc(C(F)(F)F)cc2n1Cc1cccc(F)c1 [Compound 7, N-(7,8-Dihydro-6H-pyrrolo[2′,1′:2,3]imidazo[4,5-b]pyridin-3-yl)-6-trifluoromethyl-1-(3-fluorobenzyl)-1H-indole-2-carboxamide]
- melting point: 261 to 262 °C

SMILES: O=C(Nc1cnc2c(c1)nc1n2CCC1)c1cc2ccc(C(F)(F)F)nc2n1Cc1cccc(F)c1 [Compound 23, N-(7,8-Dihydro-6H-pyrrolo[2′,1′:2,3]imidazo[4,5-b]pyridin-3-yl)-6-trifluoromethyl-1-(3-fluorobenzyl)-1H-pyrrolo[2,3-b]pyridine-2-carboxamide]
- melting point: 272 to 273 °C

SMILES: CC(=O)OC1CCn2c1nc1cc(NC(=O)c3cc4cc(F)ccc4n3Cc3cccc(F)c3)cnc12 (racemic) [Compound 2, N-(6-Acetoxy-7,8-dihydro-6H-pyrrolo[2′,1′:2,3]imidazo[4,5-b]pyridin-3-yl)-5-fluoro-1-(3-fluorobenzyl)-1H-indole-2-carboxamide]
- melting point: 139 to 141 °C

SMILES: CC(C)c1ccc2cc(C(=O)Nc3cnc4c(c3)nc3n4CCC3)n(Cc3cccc(F)c3)c2c1 [Compound 17, N-(7,8-Dihydro-6H-pyrrolo[2′,1′:2,3]imidazo[4,5-b]pyridin-3-yl)-6-isopropyl-1-(3-fluorobenzyl)-1H-indole-2-carboxamide]
- melting point: 275 to 278 °C

SMILES: O=C(Nc1cnc2c(c1)nc1n2CCC1)c1cc2cccc(F)c2n1Cc1cccc(F)c1
- melting point: 237 to 239 °C

SMILES: CSc1ccc2cc(C(=O)Nc3cnc4c(c3)nc3n4CCC3)n(Cc3cccc(F)c3)c2c1 [Compound 22, N-(7,8-Dihydro-6H-pyrrolo[2′,1′:2,3]imidazo[4,5-b]pyridin-3-yl)-6-methylthio-1-(3-fluorobenzyl)-1H-indole-2-carboxamide]
- melting point: 222 to 223 °C

SMILES: O=C(Nc1cnc2c(c1)nc1n2CCC1)c1cc2c(F)cccc2n1Cc1cccc(F)c1
- melting point: 265 to 266 °C

SMILES: O=C(Nc1cnc2c(c1)nc1n2CCC1O)c1cc2cc(C(F)(F)F)cnc2n1Cc1cccc(F)c1 (single isomer, unassigned; (-)) [Compound 36, (−)-N-(6-Hydroxy-7,8-dihydro-6H-pyrrolo[2′,1′:2,3]imidazo[4,5-b]pyridin-3-yl)-5-trifluoromethyl-1-(3-fluorobenzyl)-1H-pyrrolo[2,3-b]pyridine-2-carboxamide]
- melting point: 279 to 280 °C

SMILES: CN(C)C1CCn2c1nc1cc(NC(=O)c3cc4cc(C(F)(F)F)ccc4n3Cc3cccc(F)c3)cnc12 (single isomer, unassigned; (-)) [Compound 33, (−)-N-(6-Dimethylamino-7,8-dihydro-6H-pyrrolo[2′,1′:2,3]imidazo[4,5-b]pyridin-3-yl)-5-trifluoromethyl-1-(3-fluorobenzyl)-1H-indole-2-carboxamide]
- melting point: 203 to 205 °C

SMILES: NC1CCn2c1nc1cc(NC(=O)c3cc4cc(F)ccc4n3Cc3cccc(F)c3)cnc12 (racemic) [Compound 34, N-(6-Amino-7,8-dihydro-6H-pyrrolo[2′,1′:2,3]imidazo[4,5-b]pyridin-3-yl)-5-fluoro-1-(3-fluorobenzyl)-1H-indole-2-carboxamide]
- melting point: 218 to 220 °C

SMILES: CC(=O)NC1CCn2c1nc1cc(NC(=O)c3cc4cc(F)ccc4n3Cc3cccc(F)c3)cnc12 (racemic) [Compound 35, N-(6-Acetylamino-7,8-dihydro-6H-pyrrolo[2′,1′:2,3]imidazo[4,5-b]pyridin-3-yl)-5-fluoro-1-(3-fluorobenzyl)-1H-indole-2-carboxamide]
- melting point: 282 to 283 °C

SMILES: O=C(Nc1cnc2c(c1)nc1n2CCC1)c1cc2cc(C(F)(F)F)ccc2n1Cc1cccc(F)c1 [Compound 8, N-(7,8-Dihydro-6H-pyrrolo[2′,1′:2,3]imidazo[4,5-b]pyridin-3-yl)-5-trifluoromethyl-1-(3-fluorobenzyl)-1H-indole-2-carboxamide]
- melting point: 223 to 225 °C

SMILES: O=C(Nc1cnc2c(c1)nc1n2CCC1c1ccccc1)c1cc2cc(C(F)(F)F)ccc2n1Cc1cccc(F)c1 (racemic) [Compound 30, N-(6-Phenyl-7,8-dihydro-6H-pyrrolo[2′,1′:2,3]imidazo[4,5-b]pyridin-3-yl)-5-trifluoromethyl-1-(3-fluorobenzyl)-1H-indole-2-carboxamide]
- melting point: 129 to 130 °C

SMILES: O=C(Nc1cnc2c(c1)nc1n2CCC1)c1cc2cc(Cl)ccc2n1Cc1cccc(F)c1
- melting point: 263 to 264 °C

SMILES: O=C(Nc1cnc2c(c1)nc1n2CCC1)c1cc2cc(F)cnc2n1Cc1cccc(F)c1
- melting point: 242 to 243 °C

SMILES: Cc1ccc2c(c1)cc(C(=O)Nc1cnc3c(c1)nc1n3CCC1)n2Cc1cccc(F)c1
- melting point: 237 to 238 °C

SMILES: O=C(Nc1cnc2c(c1)nc1n2CCC1)c1cc2cc(C(F)(F)F)cnc2n1Cc1cccc(F)c1 [Compound 24, N-(7,8-Dihydro-6H-pyrrolo[2′,1′:2,3]imidazo[4,5-b]pyridin-3-yl)-5-trifluoromethyl-1-(3-fluorobenzyl)-1H-pyrrolo[2,3-b]pyridine-2-carboxamide]
- melting point: 247 to 249 °C

SMILES: O=C(Nc1cnc2c(c1)nc1n2CCC1O)c1cc2ccc(C(F)(F)F)cc2n1Cc1cccc(F)c1 (single isomer, unassigned; (-)) [Compound 28, (−)-N-(6-Hydroxy-7,8-dihydro-6H-pyrrolo[2′,1′:2,3]imidazo[4,5-b]pyridin-3-yl)-6-trifluoromethyl-1-(3-fluorobenzyl)-1H-indole-2-carboxamide]
- melting point: 269 to 271 °C

SMILES: CCc1ccc2cc(C(=O)Nc3cnc4c(c3)nc3n4CCC3)n(Cc3cccc(F)c3)c2c1
- melting point: 224 to 226 °C
